In patent publication US8168651B2, “Protein kinase modulators” (Cylene Pharmaceuticals, Inc., priority 2008, dated 2012):

Experiments:
recombinant human CK2 = recombinant human CK2 (Homo sapiens (Human), UniProt P68400); experiment: CK2 assay (cell-free, 33P-ATP filter plate); type: biochemical; conditions: 500 nM compound, cell-free assay; read-out: CK2: % inh 500 nM
recombinant human PIM1 = recombinant human PIM1 (Homo sapiens (Human), UniProt P11309); experiment: PIM-1 kinase activity in cell-free in vitro assay; type: biochemical; conditions: cell-free assay; for inhibition at 0.5 µM: 500 nM compound, read-out: PIM-1: % inh 500 nM
Chain of recombinant human PIM1 (P11309 whole entry): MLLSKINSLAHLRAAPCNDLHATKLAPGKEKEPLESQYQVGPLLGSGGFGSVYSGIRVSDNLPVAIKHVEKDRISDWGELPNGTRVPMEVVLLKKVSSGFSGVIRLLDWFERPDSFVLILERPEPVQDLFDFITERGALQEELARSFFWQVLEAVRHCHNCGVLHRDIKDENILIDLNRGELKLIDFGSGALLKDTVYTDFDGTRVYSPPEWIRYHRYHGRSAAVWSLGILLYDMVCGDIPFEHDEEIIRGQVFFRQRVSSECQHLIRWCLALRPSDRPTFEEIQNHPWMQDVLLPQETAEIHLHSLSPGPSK

K-562 = experiment: Cell proliferation modulatory activity, K-562; type: cell-based; conditions: Homo sapiens, K562; K-562 cells
MV-4-11 = experiment: Cell proliferation modulatory activity, MV-4-11; type: cell-based; conditions: Homo sapiens, MV4-11; MV-4-11 cells
[1] = test system: HCT-116 human colorectal carcinoma cells; experiment: Cell-proliferation assay using Alamar Blue dye; type: cell-based; conditions: Homo sapiens, HCT-116, second HCT-116 column (c8); read-out: HCT-116 (uM) cell proliferation modulatory activity;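 further: cells exposed to compound for about 4 days, then Alamar Blue added and dye fluorescence read after about 4 h, compared with medium-only control wells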

Chain of recombinant human CK2 (P68400 whole entry): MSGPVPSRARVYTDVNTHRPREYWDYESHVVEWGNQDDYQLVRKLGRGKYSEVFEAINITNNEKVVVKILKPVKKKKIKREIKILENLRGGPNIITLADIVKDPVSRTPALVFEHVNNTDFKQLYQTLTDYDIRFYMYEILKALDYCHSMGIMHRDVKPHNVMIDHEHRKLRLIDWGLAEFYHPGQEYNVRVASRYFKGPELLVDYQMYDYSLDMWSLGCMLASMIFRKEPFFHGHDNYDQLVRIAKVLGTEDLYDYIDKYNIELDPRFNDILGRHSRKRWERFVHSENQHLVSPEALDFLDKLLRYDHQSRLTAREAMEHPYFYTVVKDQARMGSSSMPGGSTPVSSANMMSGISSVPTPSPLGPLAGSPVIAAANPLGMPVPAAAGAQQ
Chain of recombinant human CK2 (P67870 whole entry partner): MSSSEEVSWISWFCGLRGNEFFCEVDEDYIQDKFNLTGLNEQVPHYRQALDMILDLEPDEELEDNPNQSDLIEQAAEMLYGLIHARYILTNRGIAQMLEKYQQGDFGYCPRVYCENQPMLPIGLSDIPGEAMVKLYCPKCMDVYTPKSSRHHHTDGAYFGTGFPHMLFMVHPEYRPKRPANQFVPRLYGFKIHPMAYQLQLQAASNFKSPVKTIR

Row | SMILES | inhibition at 0.5 µM (recombinant human CK2) | inhibition at 0.5 µM (recombinant human PIM1) | IC50 (recombinant human PIM1) | IC50 (K-562) | IC50 (MV-4-11) | IC50 [1]
1 | COCCNC(=O)c1ccc2c(c1)nc(NCCN(C)C)c1ccsc12 | -12.9% | -3.76% | – | > 10 µM | > 10 µM | > 10 µM
2 | N#Cc1ccc2c(c1)nc(NCCc1ccccn1)c1ccsc12 | 5.18% | 10.6% | – | > 10 µM | > 10 µM | > 10 µM
3 | COc1cc(Nc2nc3cc(C(=O)O)ccc3c3cnccc23)cc(OC)c1 | 99.4% | 72% | 152 nM | > 10 µM | 6.94 µM | > 10 µM
4 | N#Cc1ccc2c(c1)nc(NCCCN)c1ccsc12 | 61.4% | 76.6% | 129 nM | > 10 µM | > 10 µM | 2.51 µM
5 | CN1CC(Nc2nc3cc(C#N)ccc3c3sccc23)C1 | 20.6% | 0.859% | – | > 10 µM | 0.882 µM | 0.437 µM
6 | N#Cc1ccc2c(c1)nc(NCc1ccccn1)c1ccsc12 | 100% | 2.17% | – | > 10 µM | > 10 µM | > 10 µM
7 | Fc1cccc(Nc2nc3cc(-c4nnn[nH]4)ccc3c3cscc23)c1 | 52.6% | 14% | – | > 10 µM | > 10 µM | > 10 µM
8 | N#Cc1ccc(Nc2nc3cc(C(=O)O)ccc3c3cnccc23)cc1 | 95.6% | 67.3% | 310 nM | > 10 µM | > 10 µM | > 10 µM
9 | CN1CCC(N(C)c2nc3cc(C#N)ccc3c3sccc23)C1 (stereo not drawn) | -14.1% | -6.14% | – | > 10 µM | 7.87 µM | 4.65 µM
10 | N#Cc1ccc2c(c1)nc(Nc1ccc(Cl)cc1)c1cscc12 | -2.49% | -35.8% | – | > 10 µM | > 10 µM | > 10 µM
11 | Cc1nccn1CCNc1nc2cc(C#N)ccc2c2sccc12 | -15.7% | 8.62% | – | > 10 µM | > 10 µM | > 10 µM
12 | NC(=O)c1cc(Cl)cc(Nc2nc3cc(C(=O)O)ccc3c3cnccc23)c1 | 102% | 90.5% | 90 nM | > 10 µM | > 10 µM | > 10 µM

The next lines start with the values.

Row | inhibition at 0.5 µM (recombinant human CK2) | inhibition at 0.5 µM (recombinant human PIM1) | IC50 (recombinant human PIM1) | IC50 (K-562) | IC50 (MV-4-11) | IC50 [1] | SMILES
13 | -21.2% | 85.7% | 78 nM | > 10 µM | > 10 µM | > 10 µM | c1cc2c(NC3CCNCC3)nc3cc(-c4nnn[nH]4)ccc3c2s1
14 | -3.98% | -1.38% | – | > 10 µM | 9.88 µM | 6.75 µM | CC1(C)CC(Nc2nc3cc(C#N)ccc3c3sccc23)CC(C)(C)N1
15 | 24.3% | 15.8% | – | > 10 µM | 4.79 µM | 8.77 µM | CN1CCN(c2nc3cc(C#N)ccc3c3sccc23)CC1
16 | 98.4% | 64.5% | 376 nM | > 10 µM | 4.13 µM | > 10 µM | O=C(O)c1ccc2c(c1)nc(Nc1cc(F)ccc1Br)c1ccncc12
17 | -8.88% | 5.75% | – | > 10 µM | > 10 µM | > 10 µM | CC(=O)NC1CCN(c2nc3cc(C#N)ccc3c3sccc23)C1 (stereo not drawn)
18 | -40.3% | -22.8% | – | > 10 µM | > 10 µM | > 10 µM | O=C(O)c1ccc2c(c1)nc(Nc1ccccc1)c1cnccc12
19 | 24.8% | 60.7% | 656 nM | > 10 µM | > 10 µM | > 10 µM | CN(C)CCNc1nc2cc(-c3nnn[nH]3)ccc2c2sc(Br)cc12
